Experimental data reported in PubChem BioAssay (NCI).
Several values for one entry are separate records, joined by “and”; a condition that tells them apart may be missing. Equal values may be shown once.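 In this assay, cells in 96-well plates receive the compound at five concentrations for 48 hours. Endpoints are linearly interpolated between the surrounding concentrations. Abbreviation: GI50, concentration required for 50% inhibition of growth. TGI marks complete inhibition of growth.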

Legend:
Assay in all cases: inhibition of tumour cell growth, NCI panel, 48 h
[1] = test system: SN12C renal
[2] = test system: PC-3 prostate
[3] = test system: MOLT-4 leukemia
[4] = test system: SK-MEL-2 melanoma
[5] = test system: MDA-MB-231 breast
[6] = test system: SW-620 colon
[7] = test system: ACHN renal
[8] = test system: UACC-62 melanoma
[9] = test system: OVCAR-4 ovarian
[10] = test system: LOX IMVI melanoma

## O=C(Nc1ccc(-n2cc(-c3ccncc3)c(-c3ccc(Cl)c(O)c3)n2)cc1)c1ccc(Cl)c(Cl)c1
[1]
  GI50: 5.7 µM
  TGI: > 100 µM
[2]
  GI50: 4.18 µM
  TGI: > 100 µM
[3]
  GI50: 4.02 µM
  TGI: > 100 µM
[4]
  GI50: 4.05 µM
  TGI: > 100 µM
[5]
  GI50: 1.17 µM
  TGI: > 100 µM
[6]
  GI50: 4.42 µM
  TGI: > 100 µM
[7]
  GI50: 4.2 µM
  TGI: > 100 µM
[8]
  GI50: 3.22 µM
  TGI: 22.4 µM
[9]
  GI50: > 100 µM
  TGI: > 100 µM

## Cc1cn([C@H]2CN(O)C[C@@H](CO)O2)c(=O)[nH]c1=O
[1]
  TGI: > 100 µM
[2]
  TGI: > 100 µM
[3]
  TGI: > 100 µM
[4]
  TGI: > 100 µM
[5]
  TGI: > 100 µM
[6]
  TGI: > 100 µM
[7]
  TGI: > 100 µM
[8]
  TGI: > 100 µM
[9]
  TGI: > 100 µM

## CC[C@]1(O)C[C@@H]2CN(CCc3c([nH]c4ccccc34)[C@@](C(=O)OC)(c3cc4c(cc3OC)N(C)[C@H]3[C@@](O)(C(=O)OC)[C@H](OC(=O)CCCBr)[C@]5(CC)C=CCN6CC[C@]43[C@@H]65)C2)C1
[1]
  GI50: 0.046 µM
  TGI: > 100 µM
[2]
  GI50: 0.0141 µM
  TGI: 14.3 µM
[3]
  GI50: 0.026 µM
  TGI: > 100 µM
[4]
  GI50: 0.0331 µM
  TGI: > 100 µM
[6]
  GI50: < 0.0146 µM
  TGI: > 100 µM
[7]
  GI50: 0.108 µM
  TGI: > 100 µM
[8]
  GI50: < 0.01 µM
  TGI: > 100 µM
[9]
  TGI: 33.5 µM

## CCCCCCCC(=O)OC[n+]1cccc(-c2c(COC(=O)NC(C)C)c(COC(=O)NC(C)C)c3n2CCC3)c1
[1]
  TGI: > 100 µM
[2]
  TGI: > 100 µM
[3]
  TGI: 99.4 µM
[4]
  TGI: > 100 µM
[5]
  TGI: > 100 µM
[6]
  TGI: > 100 µM
[10]
  TGI: > 100 µM
[7]
  TGI: > 100 µM
[8]
  TGI: > 100 µM
[9]
  TGI: > 100 µM

## c1ccc2[nH]c(-c3cscn3)nc2c1
[1]
  TGI: > 100 µM
[2]
  TGI: > 100 µM
[3]
  TGI: > 100 µM
[4]
  TGI: > 100 µM
[5]
  TGI: > 100 µM
[6]
  TGI: > 100 µM
[10]
  TGI: > 100 µM
[7]
  TGI: > 100 µM
[8]
  TGI: > 100 µM
[9]
  TGI: > 100 µM

## COc1cc([N+](=O)[O-])c(S(=O)(=O)O)cc1-[n+]1nc(C(=O)Nc2ccccc2)nn1-c1ccc([N+](=O)[O-])c(S(=O)(=O)[O-])c1
[1]
  TGI: > 100 µM
[2]
  TGI: > 100 µM
[3]
  TGI: > 100 µM
[4]
  TGI: > 100 µM
[5]
  TGI: > 100 µM
[6]
  TGI: > 100 µM
[7]
  TGI: > 100 µM
[8]
  TGI: > 100 µM
[9]
  TGI: > 100 µM

## COc1ccc(-c2nn(-c3cccc(Cl)c3)cc2-c2c(C#N)c(=O)n3[nH]c(-c4ccc(C)o4)nc3c2C#N)cc1
[1]
  GI50: 5.3 µM
  TGI: > 50 µM
[2]
  GI50: 2.25 µM
  TGI: > 50 µM
[3]
  GI50: 3.23 µM
  TGI: 24.3 µM
[4]
  GI50: 6.57 µM
  TGI: 18.1 µM
[5]
  GI50: 4.7 µM
  TGI: 36.9 µM
[6]
  GI50: 9.21 µM
  TGI: > 50 µM
[10]
  GI50: 3.92 µM
  TGI: 12.3 µM
[7]
  GI50: 7.61 µM
  TGI: > 50 µM
[8]
  GI50: 6.46 µM
  TGI: 42.7 µM
[9]
  GI50: 6.59 µM
  TGI: > 50 µM

## CCCC/C=C1/CCC(CN(C)C)C1=O (stereo not given)
[1]
  TGI: 3.63 µM
[2]
  TGI: 27.2 µM
[3]
  GI50: 1.21 µM
  TGI: 4.15 µM
[4]
  TGI: 10.1 µM
[5]
  TGI: 9.03 µM
[6]
  TGI: 2.88 µM
[10]
  TGI: 2.91 µM
[7]
  TGI: 4.6 µM
[8]
  TGI: 4.96 µM
[9]
  TGI: 8.27 µM

## Fc1cccc(C2ON=C(c3ccccc3)N2C23CC4CC(CC(C4)C2)C3)c1 (stereo not given)
[1]
  TGI: > 10 µM
[2]
  TGI: > 10 µM
[3]
  TGI: > 10 µM
[4]
  TGI: > 10 µM
[5]
  TGI: > 10 µM
[6]
  TGI: > 10 µM
[10]
  TGI: > 10 µM
[7]
  TGI: > 10 µM
[8]
  TGI: > 10 µM
[9]
  TGI: > 10 µM

## CC(=O)Nc1ccc2c(c1)[nH]c(=O)c1cc(Cl)ccc12
[1]
  TGI: > 100 µM
[3]
  TGI: 8.53 µM
[4]
  TGI: > 100 µM
[5]
  TGI: > 100 µM
[6]
  TGI: > 100 µM
[10]
  TGI: > 100 µM
[7]
  TGI: > 100 µM
[8]
  TGI: > 100 µM
[9]
  TGI: > 100 µM

## NCC[PH+](c1ccccc1)c1ccccc1.NCC[PH+](c1ccccc1)c1ccccc1.[Cl-].[Pt+4]
[1]
  GI50: > 100 µM
  TGI: > 100 µM
[2]
  GI50: > 100 µM
  TGI: > 100 µM
[3]
  GI50: > 51.3 µM
  TGI: > 100 µM
[4]
  GI50: > 100 µM
  TGI: > 100 µM
[5]
  GI50: > 100 µM
  TGI: > 100 µM
[6]
  GI50: > 100 µM
  TGI: > 100 µM
[10]
  GI50: > 100 µM
  TGI: > 100 µM
[7]
  GI50: > 100 µM
  TGI: > 100 µM
[8]
  GI50: > 86.5 µM
  TGI: > 100 µM
[9]
  GI50: > 100 µM
  TGI: > 100 µM

## CC(=O)O[C@H]1C(=O)[C@@]2(C)C([C@H](OC(=O)c3ccccc3)[C@]3(O)C[C@H](OC(=O)[C@H](O)[C@@H](NC(=O)c4ccc(Cl)cc4)c4ccccc4)C(C)=C1C3(C)C)C1(OC(C)=O)CO[C@@H]1C[C@@H]2O (stereo not given in full)
[1]
  GI50: 0.0166 µM
  TGI: 25 µM and 83.2 µM
[2]
  TGI: 0.217 µM
[3]
  TGI: 25 µM and 4.77 µM
[5]
  TGI: 25 µM
[6]
  TGI: 25 µM and > 100 µM
[10]
  TGI: 49.6 µM
[7]
  GI50: 10.3 µM
  TGI: 25 µM and > 100 µM
[8]
  TGI: 0.178 µM
[9]
  GI50: 4.89 µM
  TGI: 25 µM and 68 µM

## COc1cc(-c2ccc[nH]2)[nH]c1/C=C1\N=C(C)C(C(=O)NC(C)C)=C1C
[1]
  GI50: 10.7 µM
  TGI: 24 µM
[2]
  GI50: 4.67 µM
  TGI: 19.3 µM
[3]
  GI50: 2.47 µM
  TGI: 24 µM
[4]
  GI50: 2.45 µM
  TGI: 5.49 µM
[5]
  GI50: 2.76 µM
  TGI: 12.9 µM
[6]
  GI50: 3.08 µM
  TGI: 14.7 µM
[10]
  GI50: 0.74 µM
  TGI: 2.52 µM
[7]
  GI50: 3.59 µM
  TGI: 13.3 µM
[8]
  GI50: 2.68 µM
  TGI: 6.77 µM

## COc1ccc2cc1Oc1ccc(cc1)CC1c3c(cc(OC)c4c3Oc3cc5c(cc3O4)CCNC5C2)CCN1C (stereo not given)
[1]
  GI50: 1.82 µM
  TGI: 3.89 µM and 3.3 µM
[2]
  TGI: 3.72 µM and 3.23 µM
[3]
  TGI: 3.44 µM
[4]
  GI50: 2.19 µM
  TGI: 3.49 µM and 3.85 µM
[5]
  GI50: 1.73 µM
  TGI: 3.35 µM
[10]
  TGI: 3.22 µM
[7]
  GI50: 1.49 µM
  TGI: 4.01 µM and 2.81 µM
[8]
  TGI: 3.43 µM
[9]
  GI50: 1.61 µM
  TGI: 6.16 µM and 3.13 µM

## COc1ccc(C2=NOC3=c4ccccc4=CSC3=C2c2ccccc2)cc1
[1]
  GI50: 22 µM
  TGI: 68.9 µM
[2]
  GI50: 20.5 µM
  TGI: > 100 µM
[3]
  GI50: > 100 µM
  TGI: > 100 µM
[4]
  GI50: 75.3 µM
  TGI: > 100 µM
[5]
  GI50: 20.3 µM
  TGI: 76 µM
[6]
  GI50: 28.9 µM
  TGI: > 100 µM
[10]
  GI50: 44.8 µM
  TGI: > 100 µM
[7]
  GI50: 73.7 µM
  TGI: > 100 µM
[8]
  GI50: 22 µM
  TGI: 85 µM
[9]
  GI50: 49.7 µM
  TGI: > 100 µM
